Experimental findings from patent publication US4472305A, “Hexapeptide amides” (Sterling Drug Inc., priority 1983, dated 1984) are described below.

Non-standard residues stand in square brackets, D forms with d. Residues, ends and D or L forms follow the SMILES beside them. Phe(4-Cl) = N[C@@H](Cc1ccc(Cl)cc1)C(=O)O; Gly(NCH2CH2Ph) = O=C(O)CNCCc1ccccc1; NMeF = CN[C@@H](Cc1ccccc1)C(=O)O; 4Pal = N[C@@H](Cc1ccncc1)C(=O)O; Dap(Me2) = CN(C)C[C@H](N)C(=O)O; d4Pal = N[C@H](Cc1ccncc1)C(=O)O; dPhg = N[C@@H](C(=O)O)c1ccccc1; NMeL = CN[C@@H](CC(C)C)C(=O)O; Nle = CCCC[C@H](N)C(=O)O; Nphe = O=C(O)CNCc1ccccc1; Dap = NC[C@H](N)C(=O)O; Sar = CNCC(=O)O

The target of test [1] is T1, SP receptor (Rattus norvegicus, UniProt P14600).
T1 construct: from tissue; host or cells: rat submaxillary gland (crude tissue suspension)
As to the kind of experiment: 3H-SP binding test, rat submaxillary gland tissue. Conditions: for inhibition at 30 µM: read-out: 3H-SP Binding % Inhibition; for effect on 3H-SP binding (specificity): rat submaxillary gland or brain tissue preparation, tissue not specified. The protocol: (§1) Crude rat submaxillary gland or brain tissue is suspended in buffer containing protease inhibitors (and calcium ions and magnesium ions in the case of brain tissue) and incubated under nitrogen atmosphere with ^3 H-SP and test compound. The bound SP is then separated from free SP by filtration and quantitated by liquid scintillation spectroscopy. This test meets the criteria of reversibility, saturability, sensitivity to known SP agonists and antagonists, and specificity for an SP receptor binding assay.
(§2) With regard to reversibility, addition of unlabelled SP causes a gradual decrease in bound ^3 H-SP, showing that SP is not irreversibly bound to the receptors in the tissue. With regard to saturability, the amount of bound ^3 H-SP in the preparation increases in direct proportion to the concentration of ^3 H-SP added until a saturation point is reached. […] With regard to sensitivity, known SP agonists and antagonists inhibit ^3 H-SP binding.
(§3) The results are expressed either as percent inhibition at a concentration of 30 micromoles per liter (μM) or as an IC50 calculated as the concentration in micromoles per liter.
(§4) The ^3 H-SP binding test results were obtained using rat submaxillary gland tissue for Examples 1-34 and rat brain tissue for Examples 35-42.

Test [2] has as its system longitudinal muscle of guinea pig terminal ileum. As to the kind of experiment: Guinea pig ileum test (SP agonist and antagonist effect). The format is cell-based. The settings on record: for Guinea Pig Ileum % Agonism (potency relative to SP): contraction of ileum longitudinal muscle strips, relative molar potency vs SP. The protocol:
Strips of longitudinal muscle derived from terminal ileum of adult male guinea pigs (Charles River, 400-600 g.) are mounted in 5-ml. organ baths containing oxygenated Krebs solution containing 1 μM each of atropine and pyrilamine maintained at 30-33 C. and connected to isometric transducers. Following tissue equilibration and repeated washing (45-60 min.), SP or an appropriate reference agonist is added cumulatively to the bath and contractions of the tissue are recorded. The bath is washed thoroughly and 30-45 min. is allowed to elapse before construction of a second reference agonist curve to assure reproducibility of the responses. Test compounds are similarly evaluated for agonist activity up to a maximum concentration of 10-100 μM. […] When appropriate, relative molar potency ratios are calculated (EC50 reference/ED50 test drug). […] The effects of several concentrations of test antagonist, pooled across separate experiments, provide dose-ratio (EC50 shift) data for a standard Schild plot analysis, with computation of the pA2.

In test [3] the target is T1, SP receptor. As to the kind of experiment: 3H-SP binding test, rat brain tissue. Conditions: 30 μM test compound; rat brain tissue (Examples 35-42). The protocol:
as §1, §2, §3, §4

Where [4] appears, read: 30 μM test compound, rat submaxillary gland tissue (Examples 1-34).

T1 sequence (P14600 whole entry): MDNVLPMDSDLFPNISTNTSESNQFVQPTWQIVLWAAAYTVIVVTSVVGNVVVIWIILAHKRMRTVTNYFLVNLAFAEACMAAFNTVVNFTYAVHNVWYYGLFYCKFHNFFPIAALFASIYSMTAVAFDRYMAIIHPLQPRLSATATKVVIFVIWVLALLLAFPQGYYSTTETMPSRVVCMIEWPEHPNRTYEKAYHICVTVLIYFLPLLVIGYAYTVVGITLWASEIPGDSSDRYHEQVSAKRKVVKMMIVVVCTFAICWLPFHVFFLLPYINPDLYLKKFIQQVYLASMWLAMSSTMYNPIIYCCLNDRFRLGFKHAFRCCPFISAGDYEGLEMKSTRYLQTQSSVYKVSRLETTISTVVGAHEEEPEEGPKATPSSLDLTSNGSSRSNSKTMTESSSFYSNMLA

Take `CSCC[C@H](NC(=O)[C@H](CC(C)C)NC(=O)[C@@H](C)NC(=O)[C@H](Cc1ccccc1)NC(=O)[C@H](Cc1ccccc1)NC(=O)[C@@H]1CCCN1)C(N)=O` [Example 1, HPro-Phe-Phe-DAla-Leu-MetNH2] (H-PFF[dA]LM-NH2): on SP receptor [1] (setting [4]), the inhibition at 30 µM is 17%. Further, the “Guinea Pig Ileum % Agonism (potency relative to SP)” value in test [2] worked out at 0.7%.
With `CSCC[C@H](NC(=O)[C@H](CC(C)C)NC(=O)CNC(=O)[C@H](Cc1ccccc1)N(C)C(=O)[C@H](Cc1ccccc1)NC(=O)[C@@H]1CCCN1)C(N)=O` [Example 2, HPro-Phe-MePhe-Gly-Leu-MetNH2] (H-PF[NMeF]GLM-NH2), the inhibition at 30 µM on SP receptor [1] (setting [4]) is 25%.
As to `CSCC[C@H](NC(=O)[C@H](CC(C)C)NC(=O)CN(C)C(=O)[C@H](Cc1ccccc1)NC(=O)[C@H](Cc1ccccc1)NC(=O)[C@@H]1CCCN1)C(N)=O` [Example 3, HPro-Phe-Phe-Sar-Leu-MetNH2] (H-PFF[Sar]LM-NH2), on SP receptor [1] (setting [4]), the inhibition at 30 µM worked out at 93%. The “Guinea Pig Ileum % Agonism (potency relative to SP)” value in test [2] was 27%.
For `CSCC[C@H](NC(=O)[C@@H](CC(C)C)NC(=O)CNC(=O)[C@H](Cc1ccccc1)NC(=O)[C@H](Cc1ccccc1)NC(=O)[C@@H]1CCCN1)C(N)=O` [Example 4, HPro-Phe-Phe-Gly-DLeu-MetNH2] (H-PFFG[dL]M-NH2) the same measures were 17% and 0.3%.
As to `CSCC[C@H](NC(=O)[C@H](CC(C)C)N(C)C(=O)CNC(=O)[C@H](Cc1ccccc1)NC(=O)[C@H](Cc1ccccc1)NC(=O)[C@@H]1CCCN1)C(N)=O` [Example 5, HPro-Phe-Phe-Gly-MeLeu-MetNH2] (H-PFFG[NMeL]M-NH2), the inhibition at 30 µM on SP receptor [1] (setting [4]) was found to be 75%.
As to `CSCC[C@@H](NC(=O)[C@H](CC(C)C)NC(=O)CNC(=O)[C@H](Cc1ccccc1)NC(=O)[C@H](Cc1ccccc1)NC(=O)[C@@H]1CCCN1)C(N)=O` [Example 6, HPro-Phe-Phe-Gly-Leu-DMetNH2] (H-PFFGL[dM]-NH2), the inhibition at 30 µM at SP receptor [1] (setting [4]) was found to be 8%. Moreover, the “Guinea Pig Ileum % Agonism (potency relative to SP)” value in test [2] is recorded as 4%.
On the same counts, the results for `CSCC[C@H](NC(=O)[C@H](CC(C)C)NC(=O)CNC(=O)[C@@H](Cc1ccccc1)NC(=O)[C@H](Cc1ccccc1)NC(=O)[C@@H]1CCCN1)C(N)=O` [Example 7, HPro-Phe-DPhe-Gly-Leu-MetNH2] (H-PF[dF]GLM-NH2) are 48% and 0.7%.
`CCCC[C@H](NC(=O)[C@H](CC(C)C)NC(=O)CNC(=O)[C@H](Cc1ccccc1)NC(=O)[C@H](Cc1ccccc1)NC(=O)[C@@H]1CCCN1)C(N)=O` [Example 8, HPro-Phe-Phe-Gly-Leu-NleNH2] (H-PFFGL[Nle]-NH2): on SP receptor [1] (setting [4]), the inhibition at 30 µM turned out to be 49%. Besides, the “Guinea Pig Ileum % Agonism (potency relative to SP)” value in test [2] was determined as 3%.
In the case of `CSCC[C@H](NC(=O)[C@H](CC(C)C)NC(=O)CNC(=O)[C@H](Cc1ccccc1)NC(=O)[C@@H](Cc1ccccc1)NC(=O)[C@@H]1CCCN1)C(N)=O` [Example 9, HPro-DPhe-Phe-Gly-Leu-MetNH2] (H-P[dF]FGLM-NH2), at SP receptor [1] (setting [4]), the inhibition at 30 µM came out at 22%. In addition, in test [2], the “Guinea Pig Ileum pA2” value came out at 5.6 and the “Guinea Pig Ileum % Agonism (potency relative to SP)” value is 0.0009%.
In the case of `CSCC[C@H](NC(=O)[C@H](CC(C)C)NC(=O)CNC(=O)[C@H](Cc1ccccc1)NC(=O)[C@H](Cc1ccccc1)NC(=O)[C@H]1CCCN1)C(N)=O` [Example 10, HDPro-Phe-Phe-Gly-Leu-MetNH2] (H-[dP]FFGLM-NH2), the inhibition at 30 µM on SP receptor [1] (setting [4]) is 65%. In test [2], the “Guinea Pig Ileum % Agonism (potency relative to SP)” value was 10%.
Regarding `CSCC[C@H](NC(=O)[C@H](CC(C)C)NC(=O)CN(C)C(=O)[C@H](Cc1ccccc1)N(C)C(=O)[C@H](Cc1ccccc1)NC(=O)[C@@H]1CCCN1)C(N)=O` [Example 11, HPro-Phe-MePhe-Sar-Leu-MetNH2] (H-PF[NMeF][Sar]LM-NH2), at SP receptor [1] (setting [4]), the inhibition at 30 µM is 11%.
The same measure, in the same setting: to `CSCC[C@H](NC(=O)[C@H](CC(C)C)NC(=O)[C@H](CN)NC(=O)[C@H](Cc1ccccc1)NC(=O)[C@H](Cc1ccccc1)NC(=O)[C@@H]1CCCN1)C(N)=O` [Example 13, HPro-Phe-Phe-LDap-Leu-MetNH2] (H-PFF[Dap]LM-NH2) belongs 15%; to `CSCC[C@H](NC(=O)[C@H](CC(C)C)N1CC[C@H](NC(=O)[C@H](Cc2ccccc2)NC(=O)[C@H](Cc2ccccc2)NC(=O)[C@@H]2CCCN2)C1=O)C(N)=O` [Example 14, HPro-Phe-Phe-CabLeu-MetNH2], 10%.
Take `CSCC[C@H](NC(=O)[C@H](CC(C)C)NC(=O)[C@H](CCC(=O)O)NC(=O)[C@H](Cc1ccccc1)NC(=O)[C@H](Cc1ccccc1)NC(=O)[C@@H]1CCCN1)C(N)=O` [Example 15, HPro-Phe-Phe-Glu-Leu-MetNH2] (H-PFFELM-NH2): the inhibition at 30 µM on SP receptor [1] (setting [4]) amounted to 10%. The “Guinea Pig Ileum % Agonism (potency relative to SP)” value in test [2] was 0.004%.
Take `CSCC[C@H](NC(=O)[C@H](CN(C)C)NC(=O)CNC(=O)[C@H](Cc1ccccc1)NC(=O)[C@H](Cc1ccccc1)NC(=O)[C@@H]1CCCN1)C(N)=O` [Example 16, HPro-Phe-Phe-Gly-Gal-MetNH2] (H-PFFG[Dap(Me2)]M-NH2): the inhibition at 30 µM on SP receptor [1] (setting [4]) was found to be 13%.
Same read-out and setting: to `CSCC[C@H](NC(=O)[C@H](CC(C)C)NC(=O)[C@H](Cc1ccncc1)NC(=O)[C@H](Cc1ccccc1)NC(=O)[C@H](Cc1ccccc1)NC(=O)[C@@H]1CCCN1)C(N)=O` [Example 19] (H-PFF[4Pal]LM-NH2) belongs 42%; to `CSCC[C@H](NC(=O)[C@H](CC(C)C)NC(=O)[C@@H](Cc1ccncc1)NC(=O)[C@H](Cc1ccccc1)NC(=O)[C@H](Cc1ccccc1)NC(=O)[C@@H]1CCCN1)C(N)=O` [Example 20] (H-PFF[d4Pal]LM-NH2), 20%.
For the molecule `CSCC[C@H](NC(=O)[C@H](CC(C)C)NC(=O)[C@@H](Cc1ccccc1)NC(=O)[C@H](Cc1ccccc1)NC(=O)[C@H](NC(=O)[C@@H]1CCCN1)c1ccccc1)C(N)=O` [Example 28, HPro-DPhg-Phe-DPhe-Leu-MetNH2] (H-P[dPhg]F[dF]LM-NH2), at SP receptor [1], the inhibition at 30 µM was found to be 33%.
`CSCC[C@H](NC(=O)[C@H](CC(C)C)NC(=O)[C@@H](Cc1ccccc1)NC(=O)CN(Cc1ccccc1)C(=O)[C@@H](Cc1ccccc1)NC(=O)[C@@H]1CCCN1)C(N)=O` [Example 30, HPro-DPhe-Bgl-DPhe-Leu-MetNH2] (H-P[dF][Nphe][dF]LM-NH2): at SP receptor [1] (setting [4]), the inhibition at 30 µM amounted to 40%.
Still for that read-out and setting: to `CSCC[C@H](NC(=O)[C@H](CC(C)C)NC(=O)[C@@H](Cc1ccccc1)NC(=O)CN(CCc1ccccc1)C(=O)[C@@H](Cc1ccccc1)NC(=O)[C@@H]1CCCN1)C(N)=O` [Example 32, HPro-DPhe-Pgl-DPhe-Leu-MetNH2] (H-P[dF][Gly(NCH2CH2Ph)][dF]LM-NH2) belongs 40%.
Still for that read-out and setting: next, `CSCC[C@H](NC(=O)[C@H](CC(C)C)NC(=O)[C@@H](CCCCN)NC(=O)[C@H](Cc1ccccc1)NC(=O)[C@@H](Cc1c[nH]c2ccccc12)NC(=O)[C@@H]1CCCN1)C(N)=O` [Example 33, HPro-DTrp-Phe-DLys-Leu-MetNH2] (H-P[dW]F[dK]LM-NH2): 15%.
Turning to `CSCC[C@H](NC(=O)[C@H](CC(C)C)NC(=O)[C@@H](CCCNC(=N)N)NC(=O)[C@H](Cc1ccccc1)NC(=O)[C@@H](Cc1c[nH]c2ccccc12)NC(=O)[C@@H]1CCCN1)C(N)=O` [Example 34, HPro-DTrp-Phe-DArg-Leu-MetNH2] (H-P[dW]F[dR]LM-NH2), the inhibition at 30 µM at SP receptor [1] (setting [4]) is 20%. In addition, the “Guinea Pig Ileum % Agonism (potency relative to SP)” value in test [2] was found to be 5.2%.
`CSCC[C@H](NC(=O)[C@H](CC(C)C)NC(=O)CNC(=O)[C@H](Cc1ccc(Cl)cc1)NC(=O)[C@H](Cc1ccc(Cl)cc1)NC(=O)[C@@H]1CCCN1)C(N)=O` [Example 37, HPro-Pcp-Pcp-Gly-Leu-MetNH2] (H-P[Phe(4-Cl)][Phe(4-Cl)]GLM-NH2) returned an inhibition at 30 µM on SP receptor [3] of 62%.
Same read-out and setting: next, `CSCC[C@H](NC(=O)[C@H](CC(C)C)NC(=O)[C@@H](Cc1c[nH]c2ccccc12)NC(=O)[C@H](Cc1ccccc1)N(C)C(=O)[C@@H](Cc1c[nH]c2ccccc12)NC(=O)[C@@H]1CCCN1)C(N)=O` [Example 38, HPro-DTrp-MePhe-DTrp-Leu-MetNH2] (H-P[dW][NMeF][dW]LM-NH2): 68%.
As to `NCC(CC(=O)O)c1ccc(Cl)cc1` (stereo not drawn) [baclofen, reference compound], the “effect on 3H-SP binding (specificity)” value at SP receptor [1] is “do not affect”.
Still for that read-out and setting: next, `COc1cc(CNC(=O)CCCC/C=C/C(C)C)ccc1O` [capsaicin, reference compound]: “do not affect”.
Consider “HPro-Phe-D,LBpa-Gly-Leu-MetNH2 [Example 18]”, for which the “3H-SP Binding % Inhibition” value at SP receptor [1] (setting [4]) came out at 90%. For the same molecule, the “Guinea Pig Ileum % Agonism (potency relative to SP)” value in test [2] worked out at 33%.

As usually defined, the inhibition is the relative decrease from the control value, in per cent.
